Laboratory results from publication PMC8286840, “Identifying SARS-CoV-2 antiviral compounds by screening for small molecule inhibitors of Nsp3 papain-like protease” (Biochemical Journal, 2021).
Where a name gives a salt, the structure may show the parent alone. Read-outs that look alike come from different tables or passages of the source.

How the values were obtained:
[1] = molecular target: T1, SARS-CoV-2 PLpro (nsp3 1564–1878) (Severe acute respiratory syndrome coronavirus 2, UniProt P0DTD1); assay: biochemical; design: FRET-quenched peptide (Pro3) cleavage by PLpro, 10 min pre-incubation, slope over 20 min, normalised to no-compound control; conditions: low concentration screen, read-out: % of control remaining
[2] = molecular target: T1, SARS-CoV-2 PLpro (nsp3 1564–1878); assay: biochemical; design: FRET-quenched peptide (Pro3) cleavage by PLpro, 10 min pre-incubation, slope over 20 min, normalised to no-compound control; conditions: high concentration screen, read-out: % of control remaining

**Q.** With `C[C@@H]1[C@@H]2Cc3ccc(O)cc3[C@@]1(C)CCN2CC1CC1` [(+)-Cyclazocine] as the molecule, how does the remaining activity at 1.25 µM ([1]; Well no.=583) read?
**A.** 72.1%

**Q.** And the remaining activity at 3.75 µM ([2]; Well no.=583)?
**A.** 98.8%

**Q.** With `C=C1C[C@]23C[C@@]1(O)CC[C@H]2[C@@]12C=C[C@H](O)[C@@](C)(C(=O)O1)[C@H]2[C@@H]3C(=O)O` [(+)-Gibberellic acid] as the molecule, how does the remaining activity at 1.25 µM ([1]; Well no.=3212) read?
**A.** 103%

**Q.** And the remaining activity at 3.75 µM ([2]; Well no.=3212)?
**A.** 105%

**Q.** Which results are given for `COC1=CC(=O)C[C@@H](C)[C@]12Oc1c(Cl)c(OC)cc(OC)c1C2=O` [(+)-Griseofulvin]?
**A.** remaining activity at 1.25 µM ([1]; Well no.=3354): 88.9%; remaining activity at 3.75 µM ([2]; Well no.=3354): 90.2%

**Q.** For `C[C@@H]1OC(=O)[C@H]2C[C@H]3CCCC[C@@H]3[C@@H](/C=C/[C@H]3CCC[C@H](C)N3C)[C@@H]12` [(+)-Himbacine], which remaining activity at 1.25 µM ([1]; Well no.=706) is on record?
**A.** 99.2%

**Q.** What about the remaining activity at 3.75 µM ([2]; Well no.=706) of the same molecule?
**A.** 98.4%

**Q.** Which remaining activity at 1.25 µM ([1]; Well no.=614) does the source give for `COc1ccc2c(c1OC)C(=O)O[C@H]2[C@@H]1c2cc3c(cc2CCN1C)OCO3` [(+)-Hydrastine] here?
**A.** 96.4%

**Q.** And the remaining activity at 3.75 µM ([2]; Well no.=614)?
**A.** 97.7%

**Q.** Which results are given for `COc1ccc2c(c1O)-c1c(OC)c(OC)cc3c1[C@H](C2)N(C)CC3` [(+)-Isocorydine hydrochloride]?
**A.** remaining activity at 1.25 µM ([1]; Well no.=3244): 93.2%; remaining activity at 3.75 µM ([2]; Well no.=3244): 95.5%

**Q.** For `C[C@]12N[C@H](Cc3ccccc31)c1ccccc12` [(+)-MK-801 hydrogen maleate], which remaining activity at 1.25 µM ([1]; Well no.=1133) is on record?
**A.** 98.4%

**Q.** And the remaining activity at 3.75 µM ([2]; Well no.=1133)?
**A.** 92.1%

**Q.** For `C[C@@H]1O[C@H](C[N+](C)(C)C)C[C@H]1O` [(+)-Muscarine chloride], which remaining activity at 1.25 µM ([1]; Well no.=3254) is on record?
**A.** 97.9%

**Q.** What about the remaining activity at 3.75 µM ([2]; Well no.=3254) of the same molecule?
**A.** 99.2%

**Q.** What does the source list for `CC[C@@H]1C(=O)OC[C@@H]1Cc1cncn1C` [(+)-Pilocarpine hydrochloride]?
**A.** remaining activity at 1.25 µM ([1]; Well no.=1102): 96.5%; remaining activity at 3.75 µM ([2]; Well no.=1102): 96.8%

**Q.** What does the source list for `N[C@@H](Cn1oc(=O)[nH]c1=O)C(=O)O` [(+)-Quisqualic acid]?
**A.** remaining activity at 1.25 µM ([1]; Well no.=1507): 96.2%; remaining activity at 3.75 µM ([2]; Well no.=1507): 97.1%

**Q.** What does the source list for `O=C1c2c(O)cc(O)cc2O[C@H](c2ccc(O)c(O)c2)[C@H]1O` [(+)-Taxifolin]?
**A.** remaining activity at 1.25 µM ([1]; Well no.=3825): 101%; remaining activity at 3.75 µM ([2]; Well no.=3825): 101%

**Q.** What does the source list for `COc1cc2c(cc1OC)[C@H]1CC(=O)[C@H](CC(C)C)CN1CC2` [(+)-Tetrabenazine]?
**A.** remaining activity at 1.25 µM ([1]; Well no.=8086): 107%; remaining activity at 3.75 µM ([2]; Well no.=8086): 108%

**Q.** `COc1cc2c3cc1Oc1cc(ccc1O)C[C@@H]1c4c(cc(OC)c(O)c4Oc4ccc(cc4)C[C@@H]3N(C)CC2)CC[N+]1(C)C` [(+)-Tubocurarine chloride] was tested. Which remaining activity at 1.25 µM ([1]; Well no.=3471) did it give?
**A.** 103%

**Q.** And the remaining activity at 3.75 µM ([2]; Well no.=3471)?
**A.** 104%

**Q.** For `CC(=O)C1=C(O)C=C2Oc3c(C(C)=O)c(O)c(C)c(O)c3[C@@]2(C)C1=O` [(+)-Usnic acid], which remaining activity at 1.25 µM ([1]; Well no.=3394) is on record?
**A.** 98.2%

**Q.** And the remaining activity at 3.75 µM ([2]; Well no.=3394)?
**A.** 102%

**Q.** What does the source list for `C[C@H]1OC[C@@H](C[N+](C)(C)C)O1` [(+)-cis-Dioxolane iodide]?
**A.** remaining activity at 1.25 µM ([1]; Well no.=579): 103%; remaining activity at 3.75 µM ([2]; Well no.=579): 100%

**Q.** Which results are given for `Oc1ccc([C@H]2COc3cc(O)ccc3C2)cc1` [(-)-(S)-Equol]?
**A.** remaining activity at 1.25 µM ([1]; Well no.=7405): 110%; remaining activity at 3.75 µM ([2]; Well no.=7405): 107%

**Q.** Which remaining activity at 1.25 µM ([1]; Well no.=3160) does the source give for `c1cc2c(cc1[C@H]1OC[C@@H]3[C@H]1CO[C@H]3c1ccc3c(c1)OCO3)OCO2` [(-)-Asarinin] here?
**A.** 98.8%

**Q.** What about the remaining activity at 3.75 µM ([2]; Well no.=3160) of the same molecule?
**A.** 101%

**Q.** For `N[C@H](CC(=O)O)C(=O)O` [(-)-Aspartic acid], which remaining activity at 1.25 µM ([1]; Well no.=7063) is on record?
**A.** 103%

**Q.** What about the remaining activity at 3.75 µM ([2]; Well no.=7063) of the same molecule?
**A.** 102%

**Q.** For `C=C[C@H]1CN2CC[C@H]1C[C@H]2[C@H](O)c1ccnc2ccccc12` [(-)-Cinchonidine], which remaining activity at 1.25 µM ([1]; Well no.=3196) is on record?
**A.** 101%

**Q.** What about the remaining activity at 3.75 µM ([2]; Well no.=3196) of the same molecule?
**A.** 102%

**Q.** How did the remaining activity at 1.25 µM ([1]; Well no.=228) turn out when `CN1C(=O)CC[C@H]1c1cccnc1` [(-)-Cotinine] was run?
**A.** 97.9%

**Q.** What about the remaining activity at 1.25 µM ([1]; Well no.=3103) of the same molecule?
**A.** 99.3%

**Q.** What about the remaining activity at 3.75 µM ([2]; Well no.=228) of the same molecule?
**A.** 99.4%

**Q.** And the remaining activity at 3.75 µM ([2]; Well no.=3103)?
**A.** 101%

**Q.** With `O=c1cccc2n1C[C@H]1CNC[C@H]2C1` [(-)-Cytisine] as the molecule, how does the remaining activity at 1.25 µM ([1]; Well no.=3797) read?
**A.** 97.8%

**Q.** What about the remaining activity at 3.75 µM ([2]; Well no.=3797) of the same molecule?
**A.** 101%

**Q.** For `CC[C@]12CCCN3CCc4c(n(c5ccccc45)C(=O)C1)[C@@H]32` [(-)-Eburnamonine], which remaining activity at 1.25 µM ([1]; Well no.=3380) is on record?
**A.** 96.6%

**Q.** What about the remaining activity at 3.75 µM ([2]; Well no.=3380) of the same molecule?
**A.** 95%

**Q.** What does the source list for `Oc1cc(O)c2c(c1)O[C@H](c1ccc(O)c(O)c1)[C@H](O)C2` [(-)-Epicatechin]?
**A.** remaining activity at 1.25 µM ([1]; Well no.=3348): 96.9%; remaining activity at 3.75 µM ([2]; Well no.=3348): 98.5%

**Q.** How did the remaining activity at 1.25 µM ([1]; Well no.=509) turn out when `CNC[C@H](O)c1ccc(O)c(O)c1` [(-)-Epinephrine bitartrate] was run?
**A.** 102%

**Q.** What about the remaining activity at 3.75 µM ([2]; Well no.=509) of the same molecule?
**A.** 99.3%

**Q.** `CN1CC[C@@]2(C)c3cc(O)ccc3N(C)[C@@H]12` [(-)-Eseroline fumarate] was tested. Which remaining activity at 1.25 µM ([1]; Well no.=751) did it give?
**A.** 96.8%

**Q.** And the remaining activity at 3.75 µM ([2]; Well no.=751)?
**A.** 93.5%

**Q.** How did the remaining activity at 1.25 µM ([1]; Well no.=6549) turn out when `C[C@H](O)[C@@H](O)[C@@H](O)[C@H](O)C=O` [(-)-Fucose] was run?
**A.** 98.1%

**Q.** And the remaining activity at 3.75 µM ([2]; Well no.=6549)?
**A.** 91.4%

**Q.** `C[C@H]1CC[C@@H](C(C)(C)O)CC2=C1CC[C@@H]2C` [(-)-Guaiol] was tested. Which remaining activity at 1.25 µM ([1]; Well no.=3076) did it give?
**A.** 98.4%

**Q.** What about the remaining activity at 3.75 µM ([2]; Well no.=3076) of the same molecule?
**A.** 99.3%

**Q.** `CC(C)NC[C@H](O)c1ccc(O)c(O)c1` [(-)-Isoproterenol hydrochloride] was tested. Which remaining activity at 1.25 µM ([1]; Well no.=917) did it give?
**A.** 107%

**Q.** And the remaining activity at 3.75 µM ([2]; Well no.=917)?
**A.** 106%

**Q.** What does the source list for `COC(=O)[C@H]1[C@H]2C[C@H]3c4[nH]c5cc(OC)ccc5c4CCN3C[C@H]2C[C@@H](OC(=O)c2cc(OC)c(OC)c(OC)c2)[C@@H]1OC` [(-)-Isoreserpine]?
**A.** remaining activity at 1.25 µM ([1]; Well no.=3246): 102%; remaining activity at 3.75 µM ([2]; Well no.=3246): 100%

**Q.** `C[C@@]12N[C@@H](Cc3ccccc31)c1ccccc12` [(-)-MK-801 hydrogen maleate] was tested. Which remaining activity at 1.25 µM ([1]; Well no.=799) did it give?
**A.** 101%

**Q.** What about the remaining activity at 3.75 µM ([2]; Well no.=799) of the same molecule?
**A.** 99.2%

**Q.** How did the remaining activity at 1.25 µM ([1]; Well no.=1110) turn out when `COc1ccc2cc([C@@H](C)C(=O)O)ccc2c1` [(-)-Naproxen sodium] was run?
**A.** 95.3%

**Q.** What about the remaining activity at 3.75 µM ([2]; Well no.=1110) of the same molecule?
**A.** 97.6%

**Q.** `CN1CCC[C@H]1c1cccnc1` [(-)-Nicotine] was tested. Which remaining activity at 1.25 µM ([1]; Well no.=3328) did it give?
**A.** 96.5%

**Q.** And the remaining activity at 3.75 µM ([2]; Well no.=3328)?
**A.** 99.2%

**Q.** Which remaining activity at 1.25 µM ([1]; Well no.=1269) does the source give for `CCCN1CCC[C@@H]2Cc3[nH]ncc3C[C@H]21` [(-)-Quinpirole hydrochloride] here?
**A.** 96.5%

**Q.** And the remaining activity at 3.75 µM ([2]; Well no.=1269)?
**A.** 99.7%

**Q.** How did the remaining activity at 1.25 µM ([1]; Well no.=1510) turn out when `C[N+]1(C)[C@@H]2C[C@@H](OC(=O)[C@H](CO)c3ccccc3)C[C@H]1[C@@H]1O[C@@H]12` [(-)-Scopolamine methyl bromide] was run?
**A.** 96.7%

**Q.** What about the remaining activity at 3.75 µM ([2]; Well no.=1510) of the same molecule?
**A.** 97.5%

**Q.** For `CCN1CCC[C@H]1CNC(=O)c1cc(S(N)(=O)=O)ccc1OC` [(-)-Sulpiride], which remaining activity at 1.25 µM ([1]; Well no.=1364) is on record?
**A.** 101%

**Q.** And the remaining activity at 3.75 µM ([2]; Well no.=1364)?
**A.** 99.2%
